Measured values: patent US5874481A, “Fluorochemical solutions for the delivery of lipophilic pharmaceutical agents” (priority 1995, dated 1999)
≈ marks a conversion by molar mass, not a printed value. Like-named read-outs stand apart in the source and are kept apart here.

Tests used:
[1] = Solubility in perfluorooctyl ethane (Example 6); assay type: physicochemical; settings: organic solvent or mixture; saturated in n-C8F17C2H5; read-out: g/L in C8F17C2H5
Description: A pharmaceutical fluorochemical solution was prepared as follows:
An aliquot of n-C8 F17 C2 H5 (2 mL; F-Tech, Inc.) was saturated with "Drug" (Sigma Chemical Co.).

[2] = cited from earlier work
[3] = Effect of fluorochemical lipophilicity on pharmaceutical solubility (Example 7); assay type: physicochemical
Description: Pharmaceutical fluorochemical solutions were prepared as follows: […]

[4] = in vivo, cited from earlier work
[5] = Solubility of prednisone in fluorocarbons (Example 5); assay type: physicochemical; settings: organic solvent or mixture, read-out: mg/L of prednisone in fluorochemical matrix
Description: A prednisone containing perfluorochemical solution was prepared as follows:
The column was a 25 cm amino column (Rainin), and the detection was carried out by a UV detector (Beckman System Gold) at the end of the column.

[6] = octanol/pH 7.4 isotonic phosphate buffer at 37° C.

c1ccc2cc3cc4ccccc4cc3cc2c1 [2,3 Benzanthracene]
solubility [1]: 0.0003 g/L (≈ 0.00131 mM) | log Po/w ([2]; Example 6, source not stated): 5.807

c1ccc2cc3ccccc3cc2c1 [Antracene]
solubility [1]: 0.09 g/L (≈ 0.505 mM) | log Po/w ([2]; Example 6, source not stated): 4.473

CCCCc1ccccc1 [Butylbenzene]
solubility [1]: 116 g/L (≈ 862 mM) | log Po/w ([2]; Example 6, source not stated): 4

CCCCCCc1ccccc1 [Hexylbenzene]
solubility [1]: 67.1 g/L (≈ 413 mM) | log Po/w ([2]; octanol/water): 5.52

c1ccc2ccccc2c1 [Naphthalene]
solubility [1]: 8.1 g/L (≈ 63.2 mM) | solubility ([3]; organic solvent or mixture, in C6F13C2H5, read-out: Naphthalene): 12000 µg/mL (≈ 93.6 mM) | solubility ([3]; organic solvent or mixture, in C6F13C6H13, read-out: Naphthalene): 30000 µg/mL (≈ 234 mM) | solubility ([3]; organic solvent or mixture, in C6F13C8H17, read-out: Naphthalene): 40000 µg/mL (≈ 312 mM) | solubility ([3]; organic solvent or mixture, in C8F17C2H5, read-out: Naphthalene): 8000 µg/mL (≈ 62.4 mM) | solubility ([3]; organic solvent or mixture, in C8F17C4H9, read-out: Naphthalene): 14000 µg/mL (≈ 109 mM) | solubility ([3]; organic solvent or mixture, in C8F17C6H13, read-out: Naphthalene): 23000 µg/mL (≈ 179 mM) | log Po/w ([2]; Example 6, source not stated): 3.387

CC/C(=C(/CC)c1ccc(O)cc1)c1ccc(O)cc1 [^3 H -diethylstilbesterol, diethylstilbesterol]
Octanol/water partition coefficient Po/w ([2]; octanol/water): 1.26 × 10^5

c1ccc2cc3ccccc3cc2c1 [^14 C-anthracene, anthracene]
Octanol/water partition coefficient Po/w ([2]; octanol/water): 3.16 × 10^4

CCCCCCCCCCCC(=O)N1CCCCCC1 [^14 C-hexamethylene lauramide, hexamethylene lauramide]
Log Po/w ([2]; octanol/water): 7.3 | Octanol/water partition coefficient Po/w ([2]; octanol/water): 2.00 × 10^7

CC(=O)[C@H]1CC[C@H]2[C@@H]3CCC4=CC(=O)CC[C@]4(C)[C@H]3CC[C@]12C [^14 C-progesterone, progesterone]
Octanol/water partition coefficient Po/w ([2]; octanol/water): 7.9 × 10^3

CCCCN1CCCCC1C(=O)Nc1c(C)cccc1C (stereo not shown) [bupivacaine]
Octanol/water partition coefficient Po/w ([2]; octanol/water): 28.2

CN(C)CCCN1c2ccccc2CCc2ccc(Cl)cc21 [clomipramine]
Octanol/water partition coefficient Po/w ([2]; octanol/water, pH 7.4): 3.80 × 10^3

CCc1cc2c(s1)N(C)C(=O)CN=C2c1ccccc1Cl [clotiazepam]
Log Po/w [2, 6]: 3.49 | Octanol/water partition coefficient Po/w [2, 6]: 3.06 × 10^3

CCCCCC(=O)OCCOCn1cnc2c(=O)[nH]c(N)nc21 [hexanoyl acyclovir]
Log Po/w [2, 6]: 0.93

CCCCCCCCCCCCCCCc1cccc(O)c1 [m-Pentadecylphenol]
solubility [1]: 0.4 g/L (≈ 1.31 mM) | solubility ([3]; c6f13c2h5, organic solvent or mixture): 700 µg/mL (≈ 2.3 mM) | solubility ([3]; c6f13c6h13, organic solvent or mixture): 4100 µg/mL (≈ 13.5 mM) | solubility ([3]; c6f13c8h17, organic solvent or mixture): 5600 µg/mL (≈ 18.4 mM) | solubility ([3]; c8f17c2h5, organic solvent or mixture): 400 µg/mL (≈ 1.31 mM) | solubility ([3]; c8f17c4h9, organic solvent or mixture): 600 µg/mL (≈ 1.97 mM) | solubility ([3]; c8f17c6h13, organic solvent or mixture): 1700 µg/mL (≈ 5.58 mM) | log Po/w ([2]; octanol/water): 9.53

CCc1ccccc1O [o-Ethylphenol]
solubility [1]: 9.4 g/L (≈ 76.9 mM)

Cc1ccc(O)cc1 [p-Cresol]
solubility [1]: 3.9 g/L (≈ 36.1 mM) | log Po/w ([2]; Example 6, source not stated): 1.9

CC(=O)O[C@H]1C(=O)[C@@]2(C)[C@H]([C@H](OC(=O)c3ccccc3)[C@]3(O)C[C@H](OC(=O)[C@H](O)[C@@H](NC(=O)c4ccccc4)c4ccccc4)C(C)=C1C3(C)C)[C@]1(OC(C)=O)CO[C@@H]1C[C@@H]2O [paclitaxel]
systemic toxicities ([4]; iv): high systemic toxicities | systemic toxicities associated with paclitaxel [4]: cardiac toxicity and neurotoxicity

CC(C)=CCN1CCC2(C)c3cc(O)ccc3CC1C2C (stereo not shown) [pentazocin]
Log Po/w [2, 6]: 2.18 | Octanol/water partition coefficient Po/w [2, 6]: 150

C[C@]12C=CC(=O)C=C1CC[C@@H]1[C@@H]2C(=O)C[C@@]2(C)[C@H]1CC[C@]2(O)C(=O)CO [prednisone]
solubility ([5]; 1,4-dibromooctafluorobutane with 10% ethanol, in 1,4-Dibromooctafluorobutane with 10% Ethyl Alcohol): 1700 mg/L (≈ 4.74 mM) | solubility ([5]; 1,4-dibromooctafluorobutane with 50% ethanol, in 1,4-Dibromooctafluorobutane with 50% Ethyl Alcohol): 3800 mg/L (≈ 10.6 mM) | solubility ([5]; n-c6f13c2h5 with 3% ethanol, in n-C6F13C2H5 with 3% Ethyl Alcohol): 27 mg/L (≈ 0.0753 mM) | solubility ([5]; n-c6f13c6h13 with 3% ethanol, in n-C6F13C6H13 with 3% Ethyl Alcohol): 80 mg/L (≈ 0.223 mM) | solubility ([5]; n-c8f17br with 3% ethanol, in n-C8F17Br with 3% Ethyl Alcohol): < 1 mg/L | solubility ([5]; in 1,4-Dibromooctafluorobutane): < 1 mg/L

CC(CN1c2ccccc2Sc2ccccc21)N(C)C (stereo not shown) [promethazine]
Log Po/w [2, 6]: 3.10 | Octanol/water partition coefficient Po/w [2, 6]: 1.27 × 10^3

OC(CCN1CCCCC1)(c1ccccc1)C1CCCCC1 (stereo not shown) [trihexyphenidyl]
Log Po/w ([2]; octanol/water, pH 7.4): 3.17 | Octanol/water partition coefficient Po/w ([2]; octanol/water, pH 7.4): 1.47 × 10^3

CCCCC(=O)OCCOCn1cnc2c(=O)[nH]c(N)nc21 [valeryl acyclovir]
Log Po/w [2, 6]: 0.30
